Values joined by “and” are separate entries in the source; they are usually repeats but may differ in a detail not shown here. Identical values can stand only once.
Test system: OVCAR-5 complex spheroids with HUVEC/MSC, viability, % test/control
Assay: Anticancer human tumor OVCAR-5 cell line growth inhibition [AhR];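 also: spheroids exposed to compounds for 7 days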;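 as to viability, T/C: 100% = DMSO vehicle control wells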
Conditions: for viability, T/C: stronger effect = lower value
Text: Multicellular complex tumor spheroid response to aryl hydrocarbon receptor antagonists in combination with a variety of drugs and investigational agents in selected tumor cell lines
The current study was undertaken to assess response to aryl hydrocarbon receptor antagonists in combination with standard-of-care drugs and investigational agents in solid tumor complex spheroid models. Complex spheroids include a stromal component modeled by human endothelial cells (HUVEC) and fibroblasts modeled by human mesenchymal stem cells (MSCs). The concentration ranges selected for each drug and investigational agent were based upon clinically achievable concentrations if the clinical Cmax of the agent was known.
Compounds. The drugs and investigational agents: BAY 2416964 (NSC825713), GNF351 (NSC835774), CH-223191 (NSC835775), CPI-455 (NSC825282), aza-TdCyd (NSC777586), decitabine (NSC127716), belinostat (NSC758774), entinostat (NSC756642), pevonedistat (NSC761192), tazemetostat (NSC777109), talazoparib (NSC765396), olaparib (NSC753686), selinexor (NSC780203), nedisertib (M3814, NSC802822), bortezomib (NSC756655), venetoclax (NSC766270), doxorubicin (NSC123127), elimusertib (BAY189344, NSC800525), ceralasertib (AZD6738, NSC777638), TAK-243 (NSC785004), alisertib (NSC759677), etoposide (NSC141540), topotecan (NSC609699), eribulin (NSC707389), gemcitabine (NSC613327), carboplatin (NSC241240), cisplatin (NSC119875), and SN-38 (NSC673596) were obtained from the National Cancer Institute (NCI) Developmental Therapeutics Program Chemical Repository (32). The FDA-approved anticancer drug set is available from the Developmental Therapeutics Program at https://dtp.cancer.gov/organization/dscb/obtaining/available plates.htm. […] The stock solutions were prepared in dimethyl sulfoxide (DMSO, Sigma-Aldrich, St. Louis, MO, cat. D2650), except for the platinum compounds which were prepared in saline (Quality Biological, Gaithersburg, MD, cat. 114-055-101), at 800-fold the tested concentration and stored at -70 degrees C prior to their use. All drugs and investigational agents were tested over a range starting from a high concentration at or near the clinical Cmax and decreasing in half-log increments. If the clinical Cmax for an agent had not been determined, the highest concentration tested was 10 microM (Table 1).
Cell Culture. All cells were maintained in an incubator at 37 degrees C and 5% CO2 with 95% humidity. The PDC lines were cultured according to standard operating procedures established by the NCI PDMR (https://pdmr.cancer.gov). Briefly, all PDCs were thawed and cultured in Matrigel-coated flasks prepared with a working solution of 1X Ham's F-12 nutrient mix, without supplementation (Invitrogen, Waltham, MA, cat. 11765054), 100 U/mL penicillin-streptomycin (Invitrogen, cat. 15140122), and 2.5% Matrigel (Corning Inc., Corning, NY, cat. 354248) for the first three passages. All PDCs were cultured in complete DMEM/F-12 media containing advanced DMEM/F-12 (Invitrogen, cat. 12634028), 4.9% defined fetal bovine serum, heat inactivated (HyClone Laboratories Inc., Logan, UT, cat. SH30070.03HI), 389 ng/mL hydrocortisone (Sigma-Aldrich, cat. H4001), 9.7 ng/mL human EGF recombinant protein (Invitrogen, cat. PHG0313), 23.4 microg/mL adenine (Sigma-Aldrich, cat. A2786), 97.3 U/mL penicillin-streptomycin (Invitrogen, cat. 15140122), 1.9 mM L-glutamine (Invitrogen, cat. 25030081), and 9.7 microM Y-27632 dihydrochloride (Tocris Bioscience, Bristol, United Kingdom, cat. 1254). The PDCs were cultured in complete DMEM/F12 media without 10 microM Y-27632 dihydrochloride for at least two passages prior to the screen. The established cell lines NCI-H1341 and […] were cultured in DMEM/F-12, HEPES (Invitrogen, cat. 11330032), 5% defined fetal bovine serum (HyClone Laboratories Inc., cat. SH30070.03), ITS premix universal culture supplement [insulin (5 microg/mL), transferrin (5 microg/mL), and selenious acid (5 ng/mL)] […]

[1] = curve of first compound, second compound 0.1 µM
[2] = curve of first compound, second compound 0.316 µM
[3] = curve of first compound, second compound 1 µM
[4] = curve of first compound, second compound 3.16 µM
[5] = curve of first compound, second compound 10 µM
[6] = second compound 0.1 µM, first compound 0.0316 µM
[7] = second compound 0.1 µM, first compound 0.1 µM
[8] = second compound 0.1 µM, first compound 0.316 µM
[9] = second compound 0.1 µM, first compound 1 µM
[10] = second compound 0.1 µM, first compound 3.16 µM
[11] = second compound 0.1 µM, first compound 10 µM
[12] = second compound 0.316 µM, first compound 0.0316 µM
[13] = second compound 0.316 µM, first compound 0.1 µM
[14] = second compound 0.316 µM, first compound 0.316 µM
[15] = second compound 0.316 µM, first compound 1 µM
[16] = second compound 0.316 µM, first compound 3.16 µM
[17] = second compound 0.316 µM, first compound 10 µM
[18] = second compound 1 µM, first compound 0.0316 µM
[19] = second compound 1 µM, first compound 0.1 µM
[20] = second compound 1 µM, first compound 0.316 µM
[21] = second compound 1 µM, first compound 1 µM
[22] = second compound 1 µM, first compound 3.16 µM
[23] = second compound 1 µM, first compound 10 µM
[24] = second compound 3.16 µM, first compound 0.0316 µM
[25] = second compound 3.16 µM, first compound 0.1 µM
[26] = second compound 3.16 µM, first compound 0.316 µM
[27] = second compound 3.16 µM, first compound 1 µM
[28] = second compound 3.16 µM, first compound 3.16 µM
[29] = second compound 3.16 µM, first compound 10 µM
[30] = second compound 10 µM, first compound 0.0316 µM
[31] = second compound 10 µM, first compound 0.1 µM
[32] = second compound 10 µM, first compound 0.316 µM
[33] = second compound 10 µM, first compound 1 µM
[34] = second compound 10 µM, first compound 3.16 µM
[35] = second compound 10 µM, first compound 10 µM

SMILES | IC50 [1] [µM] | IC50 [2] [µM] | IC50 [3] [µM] | IC50 [4] [µM] | IC50 [5] [µM] | viability, T/C [6] [%] | viability, T/C [7] [%] | viability, T/C [8] [%] | viability, T/C [9] [%] | viability, T/C [10] [%] | viability, T/C [11] [%] | viability, T/C [12] [%] | viability, T/C [13] [%] | viability, T/C [14] [%] | viability, T/C [15] [%] | viability, T/C [16] [%] | viability, T/C [17] [%] | viability, T/C [18] [%] | viability, T/C [19] [%] | viability, T/C [20] [%] | also measured
CC1(C)CCC(CN2CCN(c3ccc(C(=O)NS(=O)(=O)c4ccc(NCC5CCOCC5)c([N+](=O)[O-])c4)c(Oc4cnc5[nH]ccc5c4)c3)CC2)=C(c2ccc(Cl)cc2)C1 + Cc1cncc(-c2nc(NCCc3c[nH]c4ccccc34)c3ncn(C(C)C)c3n2)c1 | > 10 | > 10 | > 10 | > 10 | < 0.0316 | 105 | 103 | 106 | 106 | 109 | 90.1 | 101 | 103 | 102 | 105 | 109 | 89.5 | 101 | 100 | 102 | viability, T/C [21]: 103%; viability, T/C [22]: 104%; viability, T/C [23]: 86.8%; viability, T/C [24]: 81.5%; viability, T/C [25]: 85.6%; viability, T/C [26]: 86.3%; viability, T/C [27]: 83.4%; viability, T/C [28]: 88.5%; viability, T/C [29]: 75.3%; viability, T/C [30]: 4.28%; viability, T/C [31]: 4.26%; viability, T/C [32]: 5.72%; viability, T/C [33]: 3.52%; viability, T/C [34]: 4.43%; viability, T/C [35]: 9.47%
Nc1ncn(C2CC(O)C(CO)O2)c(=O)n1 (configuration not stated) |  |  |  |  |  |  |  |  |  |  |  |  |  |  |  |  |  |  |  |  | viability, T/C (compound 0.00316 µM): 101% and 99.1% and 104%; viability, T/C (compound 0.01 µM): 97.8% and 103% and 98.1%; viability, T/C (compound 0.0316 µM): 94% and 94.8% and 88.5%; viability, T/C (compound 0.1 µM): 82.6% and 82.3% and 82%; viability, T/C (compound 0.316 µM): 76% and 70.8% and 68.8%; viability, T/C (compound 1 µM): 65% and 59.9% and 63.7%; IC50 (curve of compound): > 1 µM
O=C(c1cc(Cc2n[nH]c(=O)c3ccccc23)ccc1F)N1CCN(C(=O)C2CC2)CC1 + Cc1cncc(-c2nc(NCCc3c[nH]c4ccccc34)c3ncn(C(C)C)c3n2)c1 | > 10 | > 10 | > 10 | > 10 | < 0.0316 | 93.8 | 97.7 | 93.7 | 87.5 | 91.5 | 86.8 | 93.9 | 98.7 | 95.4 | 89.9 | 84.3 | 83.7 | 84.5 | 87.7 | 91.6 | viability, T/C [21]: 87%; viability, T/C [22]: 86.2%; viability, T/C [23]: 77.3%; viability, T/C [24]: 78.2%; viability, T/C [25]: 77.8%; viability, T/C [26]: 75.2%; viability, T/C [27]: 73.2%; viability, T/C [28]: 71.8%; viability, T/C [29]: 64.8%; viability, T/C [30]: 14.8%; viability, T/C [31]: 12.9%; viability, T/C [32]: 15%; viability, T/C [33]: 12%; viability, T/C [34]: 13.7%; viability, T/C [35]: 13.1%

Reference: PubChem BioAssay AID1919015 (Molecular Pharmacology Branch, DTP, NCI, 2023)
